How the values were obtained:
[1] = molecular target: T1, Tyrosine-protein phosphatase non-receptor type 1 (Homo sapiens, UniProt P18031); test: Inhibition of human Protein-tyrosine phosphatase 1B
T1 sequence (P18031 whole entry): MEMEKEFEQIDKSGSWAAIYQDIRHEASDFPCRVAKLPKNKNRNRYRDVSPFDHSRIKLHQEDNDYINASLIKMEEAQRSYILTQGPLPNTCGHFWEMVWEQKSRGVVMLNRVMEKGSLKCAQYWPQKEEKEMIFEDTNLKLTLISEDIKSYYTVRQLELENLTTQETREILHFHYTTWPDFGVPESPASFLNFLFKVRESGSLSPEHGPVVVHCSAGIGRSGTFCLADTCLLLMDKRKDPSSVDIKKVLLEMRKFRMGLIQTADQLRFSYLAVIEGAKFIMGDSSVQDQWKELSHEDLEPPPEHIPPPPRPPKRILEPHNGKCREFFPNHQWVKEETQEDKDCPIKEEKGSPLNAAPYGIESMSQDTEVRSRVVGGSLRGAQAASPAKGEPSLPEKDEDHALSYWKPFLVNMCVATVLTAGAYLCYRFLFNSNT

[2] = molecular target: T2, Tyrosine-protein phosphatase non-receptor type 2 (Homo sapiens, UniProt P17706); test: Compound was tested for selectivity against human T cell protein tyrosine phosphatase; assay type: cell-based
T2 sequence (P17706 whole entry): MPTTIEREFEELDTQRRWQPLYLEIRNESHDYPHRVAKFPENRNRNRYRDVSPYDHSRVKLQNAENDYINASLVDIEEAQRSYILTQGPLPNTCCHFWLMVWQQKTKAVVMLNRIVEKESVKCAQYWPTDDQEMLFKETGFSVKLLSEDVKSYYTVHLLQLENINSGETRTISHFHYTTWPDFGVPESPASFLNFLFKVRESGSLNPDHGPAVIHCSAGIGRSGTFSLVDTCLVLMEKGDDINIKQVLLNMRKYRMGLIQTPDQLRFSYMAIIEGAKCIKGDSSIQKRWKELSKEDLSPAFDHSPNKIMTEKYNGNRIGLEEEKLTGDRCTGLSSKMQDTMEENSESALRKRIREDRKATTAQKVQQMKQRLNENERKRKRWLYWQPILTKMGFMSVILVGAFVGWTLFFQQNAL

[3] = molecular target: Receptor-type tyrosine-protein phosphatase F (Homo sapiens, UniProt P10586); test: Compound was tested for selectivity against LAR
Sequence of Receptor-type tyrosine-protein phosphatase F (P10586 whole entry): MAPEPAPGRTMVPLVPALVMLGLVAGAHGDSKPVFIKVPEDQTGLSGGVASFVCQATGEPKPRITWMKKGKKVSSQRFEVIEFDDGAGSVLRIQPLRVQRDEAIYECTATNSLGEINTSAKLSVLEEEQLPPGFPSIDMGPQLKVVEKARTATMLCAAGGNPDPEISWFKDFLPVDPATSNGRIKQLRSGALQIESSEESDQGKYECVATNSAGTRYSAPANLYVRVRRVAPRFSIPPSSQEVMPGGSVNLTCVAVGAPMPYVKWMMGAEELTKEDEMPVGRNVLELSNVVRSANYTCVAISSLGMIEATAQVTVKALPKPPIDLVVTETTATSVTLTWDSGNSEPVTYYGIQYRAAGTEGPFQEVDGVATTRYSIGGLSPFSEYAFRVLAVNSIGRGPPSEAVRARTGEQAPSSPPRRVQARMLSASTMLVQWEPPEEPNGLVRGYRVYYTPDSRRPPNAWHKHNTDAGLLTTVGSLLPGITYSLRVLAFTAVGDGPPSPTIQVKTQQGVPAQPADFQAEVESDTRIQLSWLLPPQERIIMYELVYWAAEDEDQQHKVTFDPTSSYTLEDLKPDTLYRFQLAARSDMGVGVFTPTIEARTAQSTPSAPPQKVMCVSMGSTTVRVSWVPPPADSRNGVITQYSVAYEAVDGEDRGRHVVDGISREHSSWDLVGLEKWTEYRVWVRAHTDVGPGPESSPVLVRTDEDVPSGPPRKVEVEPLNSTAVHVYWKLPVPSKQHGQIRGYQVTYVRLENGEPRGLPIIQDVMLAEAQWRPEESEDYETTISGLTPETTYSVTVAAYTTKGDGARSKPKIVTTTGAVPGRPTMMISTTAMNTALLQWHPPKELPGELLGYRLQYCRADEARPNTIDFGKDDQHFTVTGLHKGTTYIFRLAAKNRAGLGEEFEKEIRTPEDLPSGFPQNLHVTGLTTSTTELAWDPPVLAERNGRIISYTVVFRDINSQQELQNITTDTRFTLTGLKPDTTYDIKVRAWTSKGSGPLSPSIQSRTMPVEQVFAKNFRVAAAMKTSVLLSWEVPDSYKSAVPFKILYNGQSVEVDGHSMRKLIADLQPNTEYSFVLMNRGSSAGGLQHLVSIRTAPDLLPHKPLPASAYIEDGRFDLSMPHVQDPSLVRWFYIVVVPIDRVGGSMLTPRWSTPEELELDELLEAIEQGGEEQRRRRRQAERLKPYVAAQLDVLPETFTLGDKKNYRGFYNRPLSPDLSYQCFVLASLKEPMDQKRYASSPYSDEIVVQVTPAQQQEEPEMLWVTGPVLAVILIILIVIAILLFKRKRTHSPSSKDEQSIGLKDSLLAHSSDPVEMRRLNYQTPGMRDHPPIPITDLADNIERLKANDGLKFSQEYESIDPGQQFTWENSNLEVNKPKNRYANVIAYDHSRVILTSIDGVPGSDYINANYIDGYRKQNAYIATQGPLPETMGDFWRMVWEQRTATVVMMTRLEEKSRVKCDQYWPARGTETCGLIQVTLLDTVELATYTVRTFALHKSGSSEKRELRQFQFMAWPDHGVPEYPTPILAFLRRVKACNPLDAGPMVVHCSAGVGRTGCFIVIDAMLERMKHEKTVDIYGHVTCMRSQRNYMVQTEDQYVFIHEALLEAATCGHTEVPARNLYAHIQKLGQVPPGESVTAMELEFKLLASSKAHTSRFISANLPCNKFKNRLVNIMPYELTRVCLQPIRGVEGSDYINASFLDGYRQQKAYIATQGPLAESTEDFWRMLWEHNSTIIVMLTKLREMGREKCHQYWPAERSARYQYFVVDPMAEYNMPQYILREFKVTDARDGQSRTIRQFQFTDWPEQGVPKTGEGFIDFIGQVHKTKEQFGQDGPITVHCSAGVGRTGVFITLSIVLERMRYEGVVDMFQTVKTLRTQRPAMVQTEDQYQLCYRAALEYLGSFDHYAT

| Structure (SMILES) | IC50 [1] [µM] | IC50 [2] [µM] | IC50 [3] [µM] |
| --- | --- | --- | --- |
| O=Cc1coc2ccc([N+](=O)[O-])cc2c1=O | 91 |  |  |
| O=C(O)c1coc2ccccc2c1=O | > 1000 |  |  |
| O=Cc1coc2ccccc2c1=O | 73 |  |  |
| Nc1oc2ccccc2c(=O)c1C=O | > 1000 |  |  |
| O=Cc1coc2ccc(F)cc2c1=O | 55 |  |  |
| O=C(O)c1cc(=O)c2ccccc2o1 [CHROMOCARB] | > 1000 |  |  |
| O=C(O)c1cc2ccccc2oc1=O [COUMARIN-3-CARBOXYLIC ACID] | > 1000 |  |  |

These reach a lower IC50 [1]. Values come first.

| IC50 [1] [µM] | IC50 [2] [µM] | IC50 [3] [µM] | Structure (SMILES) |
| --- | --- | --- | --- |
| 22 |  |  | CC(C)c1ccc2occ(C=O)c(=O)c2c1 |
| 20 |  |  | O=Cc1coc2c(Br)cc(Br)cc2c1=O |
| 28 |  |  | O=Cc1coc2ccc(Cl)cc2c1=O |
| 25 |  |  | O=Cc1coc2c(Cl)cc(Cl)cc2c1=O |
| 20 |  |  | O=Cc1coc2ccc(Br)cc2c1=O |
| 25 |  |  | O=Cc1coc2c(ccc3ccccc32)c1=O |
| 14 | 780 | > 1000 | O=Cc1coc2ccc3ccccc3c2c1=O |
| 4.3 | 51 | > 1000 | O=Cc1coc2ccc(-c3ccc(-c4ccccc4)cc3)cc2c1=O |
| 18 |  |  | Cc1cc2occ(C=O)c(=O)c2cc1Cl |
| 14 | 240 | > 1000 | O=Cc1coc2ccc(-c3ccccc3)cc2c1=O |

Source: ChEMBL document CHEMBL1136136, “Formylchromone derivatives as a novel class of protein tyrosine phosphatase 1B inhibitors” (Bioorg Med Chem Lett, 2003)
